In publication PMC2630368 (The Journal of pharmacology and experimental therapeutics, 2008):
Where two headings read alike, the source gives them in different places.

Key:
[1] = target: human ρ1 GABAC receptors (Homo sapiens, UniProt P24046); assay type: cell-based; conditions: for Mode of antagonism at ρ1 GABAC receptors: GABA dose response curve in presence of 40 μM cis or 30 μM trans; for Effect when applied alone at ρ1 GABAC receptors: applied alone (cis 40 μM, trans 30 μM)
[2] = test system: lens induced myopia in chick; conditions: negative lens, ref Schmid et al., 2004; cited from earlier work
[3] = test system: human GABAB(1b,2) receptors; experiment: Two-electrode voltage clamp on recombinant GABAB; assay type: cell-based; conditions: for Percentage inhibition of GABA response at GABAB(1b,2): compound 1 mM against an EC50 concentration of GABA (3 μM), GIRK1 and GIRK4, n=3; for Response when applied alone (agonist effect) at GABAB(1b,2): compound 1 mM alone
[4] = test system: human α1β2γ2L GABAA receptors; experiment: Two-electrode voltage clamp on recombinant GABAA; assay type: cell-based; conditions: for Percentage inhibition of GABA response at GABAA(α1β2γ2L): compound 1 mM against an EC50 concentration of GABA (60 μM), n=3; for Response when applied alone (agonist effect) at GABAA(α1β2γ2L): compound 1 mM alone
[5] = test system: male Wistar rats; experiment: Morris Water Maze learning and memory in rats; assay type: in vivo, rat; conditions: for Behavior in pool, D1 / Behavior in pool, D2: grade 0-8; for Number to reach platform, D1 / Number to reach platform, D2: n=10
[6] = test system: native GABAC receptor on rat retinal bipolar cells; experiment: Whole-cell patch-clamp on dissociated rat retinal bipolar cells; assay type: cell-based; conditions: GABA 10 μM, bicuculline 100 μM
[7] = test system: lens induced myopia in chick; experiment: Lens induced myopia; assay type: in vivo; conditions: for Axial expansion (interocular difference) / Myopia (refractive error, interocular difference): 350 nmol intravitreal daily, −15 D lens, 4.5 days, mean ± SD; for Axial expansion reduction / Myopia reduction: 350 nmol intravitreal, versus water injected control
[8] = target: human ρ2 GABAC receptors (Homo sapiens, UniProt P28476); assay type: cell-based
[9] = test system: male QS mice; experiment: General behavioral and acute toxicity tests in mice; assay type: in vivo; conditions: 1, 10 and 100 mg/kg ip; 0 min to 1 week after injection
[10] = test system: ρ1 GABAC receptors; conditions: ref Chebib et al., 2007, cited from earlier work; for Potency at GABAC relative to GABAA receptors / Potency at GABAC relative to GABAB receptors: ρ1 GABAC
[11] = compound 30 μM co-applied with GABA (1 μM)
[12] = 10 mg/kg ip on D1, Trial 1, Day 1
[13] = 10 mg/kg ip on D1, Trial 1, Day 2
[14] = 30 mg/kg ip on D1, Trial 1, Day 1
[15] = 30 mg/kg ip on D1, Trial 1, Day 2
[16] = 100 mg/kg ip on D1, Trial 1, Day 1
[17] = 100 mg/kg ip on D1, Trial 1, Day 2

Sequence of human ρ1 GABAC receptors (P24046 22-479): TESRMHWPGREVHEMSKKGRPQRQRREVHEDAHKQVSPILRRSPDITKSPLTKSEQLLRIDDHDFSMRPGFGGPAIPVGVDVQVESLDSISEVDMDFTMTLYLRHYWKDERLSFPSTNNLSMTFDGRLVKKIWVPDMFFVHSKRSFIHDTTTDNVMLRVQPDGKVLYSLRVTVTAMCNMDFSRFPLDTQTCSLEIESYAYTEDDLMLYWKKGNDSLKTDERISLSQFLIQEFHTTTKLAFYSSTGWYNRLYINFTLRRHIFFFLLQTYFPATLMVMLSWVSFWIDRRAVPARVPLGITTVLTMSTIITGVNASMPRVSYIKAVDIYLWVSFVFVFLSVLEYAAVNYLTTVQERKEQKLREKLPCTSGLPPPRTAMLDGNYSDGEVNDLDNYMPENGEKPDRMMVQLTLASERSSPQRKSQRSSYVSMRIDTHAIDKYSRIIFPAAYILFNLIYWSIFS
Sequence of human ρ2 GABAC receptors (P28476 21-465): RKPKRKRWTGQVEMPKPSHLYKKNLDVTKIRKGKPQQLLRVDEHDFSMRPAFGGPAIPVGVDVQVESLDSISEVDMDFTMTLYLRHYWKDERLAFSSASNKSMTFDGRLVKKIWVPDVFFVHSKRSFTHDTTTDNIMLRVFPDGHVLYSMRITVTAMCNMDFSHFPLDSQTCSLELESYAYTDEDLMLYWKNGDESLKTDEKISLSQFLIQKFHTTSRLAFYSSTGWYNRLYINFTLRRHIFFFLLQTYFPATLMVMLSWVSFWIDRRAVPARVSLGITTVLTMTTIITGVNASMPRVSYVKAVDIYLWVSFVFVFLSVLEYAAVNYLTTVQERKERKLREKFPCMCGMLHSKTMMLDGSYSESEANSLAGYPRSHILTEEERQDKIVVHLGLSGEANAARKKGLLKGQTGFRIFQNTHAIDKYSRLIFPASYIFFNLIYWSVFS

Molecule: CP(=O)(O)C1=CCNCC1 [TPMPA, (1,2,5,6-tetrahydropyridin-4-yl)methylphosphinic acid, reference compound]
- Inhibition of the GABA response at ρ1 GABAC receptors [1, 11]: completely inhibited
- Dose inhibiting a similar degree of lens-induced myopia [2]: 70 nmol

Molecule: CCCCP(=O)(O)[C@H]1CC[C@@H](N)C1 (relative stereo) [cis-3-ACPBPA, cis-(3-aminocyclopentanyl)butylphosphinic acid]
- Mode of antagonism at ρ1 GABAC receptors [1]: competitive antagonists
- Potency at GABAC relative to GABAA or GABAB receptors ([1]; GABAC versus GABAA or GABAB): over 100 times
- Effect when applied alone at ρ1 GABAC receptors [1]: no effect alone
- Inhibition of the GABA response at ρ1 GABAC receptors ([1]; compound 40 μM co-applied with GABA (1 μM)): completely inhibited
- IC50 ([1]; read-out: GABAC ρ1 IC50, GABA 1 μM, n=4): 5.06 µM
- Potency relative to the trans analog at the ρ1 and ρ2 GABAC receptors ([1]; ρ1 and ρ2 GABAC receptors): approximately 15 times
- Percentage inhibition of GABA response at GABAB(1b,2) [3]: 27±3%
- Response when applied alone (agonist effect) at GABAB(1b,2) [3]: No response
- Percentage inhibition of GABA response at GABAA(α1β2γ2L) [4]: 33±3%
- Response when applied alone (agonist effect) at GABAA(α1β2γ2L) [4]: no response alone
- Median time to reach platform, D1 [5, 12]: 59 s
- Behavior in pool, D1 [5, 12]: 3
- Number to reach platform, D1 [5, 12]: 5
- Median time to reach platform, D2 [5, 13]: 71 s
- Behavior in pool, D2 [5, 13]: 4
- Number to reach platform, D2 [5, 13]: 8
- Median time to reach platform, D1 [5, 14]: 31 s
- Behavior in pool, D1 [5, 14]: 4 ^*, 4
- Number to reach platform, D1 [5, 14]: 7
- Median time to reach platform, D2 [5, 15]: 35 s
- Behavior in pool, D2 [5, 15]: 4 ^*, 4
- Number to reach platform, D2 [5, 15]: 9
- Median time to reach platform, D1 [5, 16]: 85 s
- Behavior in pool, D1 [5, 16]: 3
- Number to reach platform, D1 [5, 16]: 5
- Median time to reach platform, D2 [5, 17]: 71 s
- Behavior in pool, D2 [5, 17]: 4
- Number to reach platform, D2 [5, 17]: 6
- Hill coefficient [6]: 0.97
- IC50 ([6]; read-out: IC50 at native GABAC receptor, n=6): 47 ± 4.5 µM
- Axial expansion (interocular difference) [7]: 0.17±0.17 mm
- Myopia (refractive error, interocular difference) [7]: −2.3±2.6 D
- Axial expansion reduction [7]: 70%
- Myopia reduction [7]: 80%
- Dose required to inhibit a similar degree of lens-induced myopia (>80%) ([7]; intravitreal, chick): 35 nmol
- IC50 ([8]; read-out: GABAC ρ2 IC50, GABA 1 μM, n=4): 11.1 µM
- Overt acute toxicity [9]: No overt acute toxicity

Molecule: CCCCP(=O)(O)C1CCC(N)C1 (stereo not drawn) [trans-3-ACPBPA, trans-(3-aminocyclopentanyl)butylphosphinic acid]
- IC50 [1]: 72.6 µM
- Mode of antagonism at ρ1 GABAC receptors [1]: competitive antagonists
- Effect when applied alone at ρ1 GABAC receptors [1]: no effect alone
- Inhibition of the GABA response at ρ1 GABAC receptors [1, 11]: 70%
- Percentage inhibition of GABA response at GABAB(1b,2) [3]: 35±5%
- Response when applied alone (agonist effect) at GABAB(1b,2) [3]: No response
- Percentage inhibition of GABA response at GABAA(α1β2γ2L) [4]: 28±5%
- Response when applied alone (agonist effect) at GABAA(α1β2γ2L) [4]: no response alone
- Median time to reach platform, D1 [5, 12]: 77 s
- Behavior in pool, D1 [5, 12]: 3
- Number to reach platform, D1 [5, 12]: 5
- Median time to reach platform, D2 [5, 13]: 44 s
- Behavior in pool, D2 [5, 13]: 4
- Number to reach platform, D2 [5, 13]: 8
- Median time to reach platform, D1 [5, 14]: 82 s
- Behavior in pool, D1 [5, 14]: 3
- Number to reach platform, D1 [5, 14]: 5
- Median time to reach platform, D2 [5, 15]: 47 s
- Behavior in pool, D2 [5, 15]: 5
- Number to reach platform, D2 [5, 15]: 8
- Median time to reach platform, D1 [5, 16]: 61 s
- Behavior in pool, D1 [5, 16]: 4
- Number to reach platform, D1 [5, 16]: 6
- Median time to reach platform, D2 [5, 17]: 28 s
- Behavior in pool, D2 [5, 17]: 6
- Number to reach platform, D2 [5, 17]: 9
- Axial expansion (interocular difference) [7]: 0.15±0.15 mm
- Myopia (refractive error, interocular difference) [7]: −3.1±2.8 D
- Axial expansion reduction [7]: 74%
- Myopia reduction [7]: 74%
- IC50 [8]: 190 µM
- Overt acute toxicity [9]: No overt acute toxicity

Molecule: CP(=O)(O)[C@H]1CC[C@@H](N)C1 (relative stereo) [cis-3-ACPMPA, cis-(3-aminocyclopentanyl)methylphosphinic acid]
- Mode of antagonism at GABAC receptors [10]: competitive antagonists
- Potency at GABAC relative to GABAA receptors [10]: greater than 100 times
- Potency at GABAC relative to GABAB receptors [10]: 50 times

Molecule: CN1[C@@H]2C[C@@H](OC(=O)[C@H](CO)c3ccccc3)C[C@H]1[C@@H]1O[C@@H]12 [scopolamine, reference compound]
- Time taken to find the platform ([5]; 1 mg/kg ip, D1, versus vehicle): statistically significant increase
- Behavior score ([5]; 1 mg/kg ip, Trials 3 and 4 of D1, vehicle 6): 3

Molecule: CCCCP(=O)(O)CCCN [CGP36742, (3-aminopropyl)-n-butylphosphinic acid]
- Dose inhibiting a similar degree of lens-induced myopia [2]: 280 nmol

Molecule: trans-(3-aminocyclopentanyl)methylphosphinic acid [trans-3-ACPMPA]
- Mode of antagonism at GABAC receptors [10]: competitive antagonists
- Potency at GABAC relative to GABAA receptors [10]: greater than 100 times
- Potency at GABAC relative to GABAB receptors [10]: 50 times
